≈ marks a conversion by molar mass, not a printed value. Like-named read-outs stand apart in the source and are kept apart here. Square brackets hold non-standard residues; d marks the D form. Peptide text beside a SMILES is read from it.
How the values were obtained:
[1] = biological target: T1, elastase (from human leukocytes) (Homo sapiens, UniProt P08246); experiment: Proteolytic digestion assessed by reverse-phase HPLC; format: in vitro ADME
T1 construct: elastase (from human leukocytes, Sigma); purchased Sigma; host or cells: human leukocytes (cell-derived)
T1 sequence (P08246 30-247 limits assumed): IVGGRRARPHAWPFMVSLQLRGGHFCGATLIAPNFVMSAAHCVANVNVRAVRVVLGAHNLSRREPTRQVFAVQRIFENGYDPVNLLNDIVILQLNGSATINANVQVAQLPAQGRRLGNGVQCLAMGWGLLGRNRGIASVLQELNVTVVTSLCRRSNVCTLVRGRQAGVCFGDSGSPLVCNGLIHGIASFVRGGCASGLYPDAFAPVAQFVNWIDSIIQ

[2] = biological target: trypsin (from bovine pancreas) (Bos taurus, UniProt P00760); experiment: in vitro; conditions: pH 7.3
trypsin (from bovine pancreas), sequence (P00760 24-246): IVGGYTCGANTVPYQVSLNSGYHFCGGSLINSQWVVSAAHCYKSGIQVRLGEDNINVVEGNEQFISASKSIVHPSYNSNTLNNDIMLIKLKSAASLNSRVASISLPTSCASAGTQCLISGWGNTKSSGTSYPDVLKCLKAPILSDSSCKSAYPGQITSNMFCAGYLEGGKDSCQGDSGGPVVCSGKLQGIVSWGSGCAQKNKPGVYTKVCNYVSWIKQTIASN
Description: (§1) In order to reach their target, the diastereomers have to withstand proteolytic digestion by proteases which may occur during the time of their administration site till they reach the target site. The susceptibility of the diastereomer 2 of the invention Is to proteolytic digestion by pepsin (from porcine stomach mucosa, Sigma), trypsin (from bovine pancreas, Sigma), and elastase (from human leukocytes, Sigma) was assessed by reverse-phase HPLC. As a control we used the native, all L-amino acid antimicrobial peptide cecropin B. Equal amounts of the peptides were dissolved in PBS (35 mM phosphate buffer/0.15 M NaCl, pH 7.3) at final concentration of 140 μM to which 25 μM of protease were added. The samples were incubated under agitation for 30 min at 37° C. After the addition of the appropriate protease inhibitor to stop the reaction, aliquots were injected to C18 column and the amounts of the intact diastereomers were evaluated using their absorbance at 215 nm.

[3] = biological target: pepsin (from porcine stomach mucosa) (Sus scrofa, UniProt P00791); experiment: in vitro; conditions: pig, pH 7.3
pepsin (from porcine stomach mucosa), sequence (P00791 60-385): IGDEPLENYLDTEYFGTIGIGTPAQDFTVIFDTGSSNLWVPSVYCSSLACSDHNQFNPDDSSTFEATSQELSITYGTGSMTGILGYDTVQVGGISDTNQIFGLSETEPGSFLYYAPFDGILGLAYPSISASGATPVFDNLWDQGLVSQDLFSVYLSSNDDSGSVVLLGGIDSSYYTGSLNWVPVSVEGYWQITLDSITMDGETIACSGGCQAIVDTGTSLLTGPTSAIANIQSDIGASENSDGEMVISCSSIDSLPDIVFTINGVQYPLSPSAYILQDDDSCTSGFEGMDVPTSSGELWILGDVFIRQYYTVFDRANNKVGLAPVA
Description: as §1

[4] = system: Mycoplasma pneumoniae; format: cell-based; conditions: 1 h
Description: In order to examine the activity of the diastereomers of the invention against mycoplasma, 500 μl of Mycoplasma pneumoniae cells were introduced into a cell culture flask containing 50 ml of SP-4 growth media (Jacob et al., 1985). The cells were grown at 37° C. for 3-4 days. Before the assay, the mycoplasma cells were washed 3 times with serum-free medium (without fetal calf serum) and then harvested into 5 ml of the same medium. The cells' concentration was adjusted to approximately 1×10^6 cells ml^−1. Thereafter, 150 μl of either diastereomer 1 or 2 in phosphate-buffered saline (PBS) were added to 150 μl mycoplasma cells. The mixture was incubated for 1 hour at room temperature. As a control, cells were incubated with PBS alone. At the end of the incubation period, 150 μl of the mixture were inoculated into tissue culture flasks (in duplicate) containing 15 ml SP-4 media. After 3-4 days, the mycoplasma viability was determined by counting the number of cells grown in each flask.

[5] = system: B16 F10 mouse melanoma cell line; experiment: In vitro anticancer activity, Trypan blue cell viability, LC50
Description: (§2) The anticancer activity of the diastereomers 1, 2, 8, 9 and 10 was examined against B16 F10 mouse melanoma cell line. Melanoma cells were grown in RPMI-1640 medium supplemented with 10% fetal calf serum and antibiotics, at 37° C., in humidified atmosphere at 5% CO2 and 95% air. In addition, the cell-selectivity of the diastereomeric peptides was studied by examining their effect on NIH-3T3 normal fibroblasts cell line. NIH-3T3 mouse fibroblasts cells were grown in DMEM medium supplemented with 10% bovine calf serum and antibiotics under the same conditions as described above for B16 F10 mouse melanoma cells. Melanoma cells (2×10^5 cells ml^−1) or NIH-3T3 cells (2.5×10^5 cells ml^−1) were seeded in tissue culture plates (3.5 cm). After 48 h, cells were washed thrice with the corresponding medium. Then the cells were incubated at 37° C. in medium (without serum and antibiotics) in the presence of the tested diastereomeric peptides dissolved in PBS, at different concentrations. […] Following 24 h of incubation, the cells were harvested with trypsin (0.25%)-EDTA (0.05%) and centrifuiged for 10 min at 270×g. The precipitated cells were suspended in the corresponding medium and counted in a hemocytometer (Neubauer). Cell viability was determined by Trypan blue dye exclusion.

[6] = Cell selectivity, Trypan blue cell viability, LC50; format: cell-based, mouse; conditions: 50% cell mortality after 24 h incubation, medium without serum, read-out: Lethal Concentration (LC50), NIH-3T3 fibroblasts
[7] = system: Candida albicans ATCC 10231; format: cell-based
Description: (§3) The antifungal activity of the diastereomers was examined in sterile 96-well plates (Nunc F96 microtiter plates) in a final volume of 200 μL as follows: 100 μl of a suspension containing fungi at concentration of 1×10^4 Colony-Forming Units (CFU)/ml in culture medium (RPMI 1640, 0.165 M MOPS pH 7.0, with L-glutamine, without NaHCO3) was added to 100 μl of water containing the peptide in serial 2-fold dilutions in water. The fungi were incubated in the presence of the diastereomeric peptides for 24-48 h at 35° C. in a Binder KB115 incubator under agitation. Growth inhibition was determined by measuring the absorbance at 620 nm with a Microplate autoreader E1309 (Bio-tek Instruments). Antifungal activity is expressed as the minimal inhibitory concentration (MIC), the concentration at which 100% inhibition of growth was observed after the incubation time mentioned above. The fungi used were: Aspergillus niger ATCC 9642, Candida albicans ATCC 10231 and Cryptococcus neoformans ATCC 66031.

[8] = system: Cryptococcus neoformans ATCC 66031; format: cell-based
Description: as §3

[9] = system: Aspergillus niger ATCC 9642; format: cell-based
Description: as §3

[10] = system: vancomycin-resistant Enterococcus faecium (VRE) ATCC 700221; format: cell-based
Description: (§4) The antibacterial activity of the peptides was examined in sterile 96-well plates (Nunc F96 microtiter plates) in a final volume of 100 μl as follows: Aliquots (50 μl) of a suspension containing bacteria at concentration of 1×10^6 Colony-Forming Units (CFU)/ml in culture LB (Lauria broth) medium were added to 50 μl of water containing the peptide in serial 2-fold dilutions in water. Inhibition of growth was determined by measuring the absorbance at 600 nm with a Microplate autoreader E1309 (Bio-tek Instruments), after an incubation time of 18-20 h at 37° C. Antibacterial activities were expressed as the minimal inhibitory concentration (MIC), the concentration at which 100% inhibition of growth was observed after 18-20 h of incubation. The bacteria used were: Escherichia coli ATCC 25922, Acinetobacter baumannii ATCC 19606, Pseudomonas aeruginosa ATCC 27853, Staphylococcus aureus ATCC 6538P, Enterococcus faecalis ATCC 29212, Enterobacter cloacae ATCC 49141. The antibacterial activity of peptides 2 and 6 was also examined against resistant bacteria: methicilin-resistant Staphylococcus aureus ([…]) ATCC 700698 and vancomycin-resistant Enterococcus faecium (VRE) ATCC 700221.

[11] = system: methicilin-resistant Staphylococcus aureus (MRSA) ATCC 700698; format: cell-based
Description: as §4

[12] = In vitro anticancer activity, Trypan blue cell viability, LC50
Description: as §2

Row | SMILES | metabolised at 0.5 h, 140 μM ([1]; isolated enzyme elastase, pH 7.3) [%] | metabolised at 0.5 h, 140 μM [2] [%] | metabolised at 0.5 h, 140 μM [3] [%] | MIC against Mycoplasma [4] [µg/mL] | Lethal Concentration (LC50), B16-F10 melanoma ([5]; 50% cell mortality after 24 h incubation, medium without serum) [µg/mL] | CC50 at 24 h ([6]; mouse, NIH-3T3 fibroblasts) [µg/mL] | MIC, C. albicans ATCC 10231 [7] [µg/mL] | MIC, C. neoformans ATCC 66031 [8] [µg/mL] | MIC, A. niger ATCC 9642 [9] [µg/mL] | Activity against resistant bacteria VRE [10] | Activity against resistant bacteria MRSA [11] | metabolised at 0.5 h, 140 μM ([1]; elastase from human leukocytes, 140 μM peptide, 25 μM protease, 30 min at 37° C., PBS pH 7.3, read-out: Proteolytic digestion, Elastase) [%] | CC50 [12] [µg/mL] | Selectivity between melanoma and NIH-3T3 cell lines ([5]; B16 F10 vs NIH-3T3) | CC50 [6] [µg/mL] | Activity against C. albicans [7] | Activity against A. niger [9]
1 | CC(C)C[C@H](NC(=O)[C@H](CCCCN)NC(=O)[C@H](CC(C)C)NC(=O)[C@@H](CC(C)C)NC(=O)[C@H](CC(C)C)NC(=O)[C@@H](N)CCCCN)C(=O)N[C@@H](CC(C)C)C(=O)N[C@H](CCCCN)C(=O)N[C@H](CCCCN)C(=O)N[C@@H](CC(C)C)C(=O)N[C@@H](CC(C)C)C(=O)N[C@@H](CCCCN)C(=O)N[C@H](CC(C)C)C(=O)N[C@@H](CC(C)C)C(=O)N[C@@H](CCCCN)C(N)=O [Peptide 2, [D]-L^3,13,K^8,9-K6L9] (H-KL[dL]LKLL[dK][dK]LLK[dL]LK-NH2) | 6 | 32 | 10 | 12.5 (≈ 6.93 µM) | 9 | 30 (≈ 16.6 µM) | 100 (≈ 55.4 µM) | 1.4 (≈ 0.776 µM) | 50 (≈ 27.7 µM) | – | – | – | – | – | – | – | –
2 | CC(C)C[C@H](NC(=O)[C@H](CC(C)C)NC(=O)[C@@H](CCCCN)NC(=O)[C@@H](CCCCN)NC(=O)[C@H](CC(C)C)NC(=O)[C@@H](CC(C)C)NC(=O)[C@H](CCCNC(=N)N)NC(=O)[C@H](CC(C)C)NC(=O)[C@@H](CC(C)C)NC(=O)[C@H](CC(C)C)NC(=O)[C@@H](N)CCCCN)C(=O)N[C@@H](CCCNC(=N)N)C(=O)N[C@H](CC(C)C)C(=O)N[C@@H](CC(C)C)C(=O)N[C@@H](CCCCN)C(N)=O [Peptide 6, [D]-L^3,6,13,K^8,9-K4R2L9] (H-KL[dL]LR[dL]L[dK][dK]LLR[dL]LK-NH2; N-terminus assumed) | – | – | – | – | – | – | 150 (≈ 80.6 µM) | 1.5 (≈ 0.806 µM) | 200 (≈ 107 µM) | highly active | highly active | – | – | – | – | – | –
3 | CC[C@H](C)[C@H](NC(=O)CNC(=O)[C@H](CC(N)=O)NC(=O)[C@H](CCCNC(=N)N)NC(=O)[C@@H](NC(=O)[C@H](CC(N)=O)NC(=O)[C@H](CCCNC(=N)N)NC(=O)CNC(=O)[C@H](CCSC)NC(=O)[C@H](CCCCN)NC(=O)[C@H](CCC(=O)O)NC(=O)[C@@H](NC(=O)[C@H](CCCCN)NC(=O)[C@H](CCCCN)NC(=O)[C@H](Cc1ccccc1)NC(=O)[C@@H](NC(=O)[C@H](CCCCN)NC(=O)[C@H](Cc1c[nH]c2ccccc12)NC(=O)[C@@H](N)CCCCN)C(C)C)[C@@H](C)CC)[C@@H](C)CC)C(=O)N[C@H](C(=O)N[C@@H](CCCCN)C(=O)N[C@@H](C)C(=O)NCC(=O)N1CCC[C@H]1C(=O)N[C@@H](C)C(=O)N[C@H](C(=O)N[C@@H](C)C(=O)N[C@H](C(=O)N[C@@H](CC(C)C)C(=O)NCC(=O)N[C@@H](CCC(=O)O)C(=O)N[C@@H](C)C(=O)N[C@@H](CCCCN)C(=O)N[C@@H](C)C(=O)N[C@@H](CC(C)C)C(N)=O)C(C)C)[C@@H](C)CC)C(C)C [Cecropin B, cecropin B, reference compound] (H-KWKVFKKIEKMGRNIRNGIVKAGPAIAVLGEAKAL-NH2) | – | 100 | 100 | – | – | – | – | – | – | – | – | 100 | – | – | – | – | –
4 | CC(C)C[C@H](NC(=O)[C@H](CCCCN)NC(=O)[C@@H](CC(C)C)NC(=O)[C@@H](CC(C)C)NC(=O)[C@H](CC(C)C)NC(=O)[C@@H](N)CCCCN)C(=O)N[C@@H](CC(C)C)C(=O)N[C@H](CC(C)C)C(=O)N[C@@H](CCCCN)C(=O)N[C@H](CC(C)C)C(=O)N[C@@H](CC(C)C)C(=O)N[C@@H](CCCCN)C(N)=O [Peptide 1, [D]-L^3,4,8,10-K4L8, reference compound] (H-KL[dL][dL]KLL[dL]K[dL]LK-NH2; N-terminus assumed) | – | – | – | 50 (≈ 34.8 µM) | – | – | >200 | 4.7 (≈ 3.28 µM) | >200 | – | – | – | 90 (≈ 62.7 µM) | active against both cell lines at similar concentration | 100 (≈ 69.7 µM) | inactive | inactive

Reference: US20040053847A1, “Diastereomeric peptitdes and pharmaceutical compositions comprising them” (priority 2000, published 2004)
